Data from paper PMC8396575, ““Molecular Masks” for ACE2 to Effectively and Safely Block SARS-CoV-2 Virus Entry” (International Journal of Molecular Sciences, 2021).
Bridge positions count the residues as written; N and C are the ends. Square brackets hold non-standard residues; d marks the D form. Peptide text beside a SMILES is read from it. I, II: the chains in the order shown. N(4-MeOBn)Gly = COc1ccc(CNCC(=O)O)cc1; N((CH2)3OiPr)Gly = CC(C)OCCCNCC(=O)O; Nrpe = C[C@@H](NCC(=O)O)c1ccccc1; NAllylGly = C=CCNCC(=O)O; Nleu = CC(C)CNCC(=O)O; Nme = COCCNCC(=O)O

What was measured:
[1] = molecular target: T1, recombinant human angiotensin-converting enzyme 2 (ACE2) (His-tag) (Homo sapiens, UniProt Q9BYF1); assay: ELISA-like quantitative ACE2-peptoid binding assay
T1 construct: purchased RayBiotech 230-30165-100
Description: We first validated the OBTC screening results by resynthesizing ACE2P1 and ACE2P2 on tentagel beads and incubated them with red cells (ACE2 positive) and green cells (ACE2 negative) separately as well as 1:1 mixture of these cells. […] Next, we incubated recombinant ACE2 protein with the ACE2P1 or ACE2P2 conjugated tentagel beads and performed in vitro pull-down assay. […] To confirm a direct interaction between the peptoids and ACE2, we performed a thermal shift assay using recombinant ACE2 protein. The Applied Biosystems™ Protein Thermal Shift™ assay measures protein thermal stability using a fluorescent protein-binding dye. […] The protein is mixed with the dye and heated; as it unfolds or melts, hydrophobic parts of the protein are exposed and bind to the dye, resulting in fluorescence emission detected by the qPCR system. Binding of a ligand to the protein changes the stability of the protein, resulting in a change in fluorescence intensity. […] Finally, we performed a previously published ELISA-like quantitative binding assay to quantify the peptoid-ACE2 binding event. The recombinant His-tagged ACE2 protein was attached to the Nickel-coated 96-well plate. […] After washing, the remaining compounds were probed with streptavidin-HRP system followed by detecting luminescence signals using a spectrophotometer. […]

[2] = system: ACE2 activity in Caco-2 cells; assay: ACE2 enzyme activity in Caco-2 cells; format: cell-based, human; settings: 40 µg cell lysate, cOmplete protease inhibitor 40 µL/mL, 10 µM captopril; fluorescence; n = 3/group
Description: ACE2 is an enzyme which lowers blood pressure by catalyzing the hydrolysis of angiotensin II [49]. […] To determine if ACE2P1D1 and ACE2P2D1 interfere with the normal functions of ACE2, we examined the effects of the peptoids on ACE2 enzyme activity. ACE2 enzyme activity was measured by fluorescence generated from the cleavage of the substrate Mca-YVADAPK(Dnp) by ACE2. […] We then examined the effects of ACE2P1D1 and ACE2P2D1 on ACE2 activity in cultured cells. For measuring ACE2 activity in cells, cell homogenates were used. To prevent hydrolysis of the substrate by a range of nonmetalloprotease enzymes from the cells, cOmplete™ Protease Inhibitor Cocktail (Roche/Sigma—40 µL/mL) was added to the cell homogenates. To eliminate the effects of ACE on the substrate, ACE inhibitor captopril (10 µM) was added to the assay.
ACE2 enzyme activity was determined using recombinant ACE2 protein (R&D system Inc., Cat# 933-ZN-010, Minneapolis, MN, USA) alone or in the presence of ACE2P1D1 and ACE2P2D1 in different concentrations (0.1 µM, 1 µM, and 10 µM), and Mc[…] (Dnp)-OH, Fluorogenic Peptide Substrate VI from R&D System, Inc. (Cat# ES007, Minneapolis, MN, USA). […] ACE2 enzyme activity was measured every 20 min by fluorescence plate reader (BioTek Cytation 5 cell Imaging Multi-Mode Reader, Winooski, VT, USA) with excitation at 320 nm and emission at 405 nm.

[3] = system: ACE2 cell surface expression in Caco-2 cells; assay: Flow cytometry, ACE2 cell surface expression, Caco-2; format: cell-based, human; settings: 10 µM, 48 h
Description: To evaluate the impact of compounds to ACE2 upon binding in cell lines, MCF-7, NCI-H1299, and Caco-2 cell cultures reaching 70% confluences were incubated with 10 μM ACE2P1D1 and ACE2P2D1 for 48 h and then harvested using trypsin. Briefly, cells were centrifuged and washed with FACS buffer and then fixed by methanol on ice. Cells were suspended with a primary antibody-staining mixture using 0.5 μg (Human/Mouse/Rat/Hamster ACE-2 Antibody, R&D Systems, Inc., Cat# AF933, Minneapolis, MN, USA) per sample. Samples were incubated at room temperature for 1 h followed by washing and secondary antibody (mouse anti-goat IgG-FITC, Santa Cruz, Cat# sc-2356, Dallas, TX, USA) staining. Samples were incubated for another hour and washed before being analyzed using Accuri™ C6 (BD Biosciences, Franklin Lakes, NJ, USA). Data analysis was conducted by FlowJo™ v10 software (v10.5.2, FlowJo. LLC, Ashland, OR, USA).

[4] = system: total ACE2 protein in Caco-2 cells; assay: Western blot, total ACE2, Caco-2; format: cell-based, human; settings: various concentrations, 48 h
Description: Cells were lysed in RIPA buffer (1% NP-40, 0.5% sodium deoxycholate, 0.1% SDS in PBS). Complete protease inhibitor cocktail (Roche, St. Louis, MO, USA) was added to lysis buffer before use. Protein concentration was determined by Bio-Rad DC protein assay (Bio-Rad, Hercules, CA, USA). Protein samples were subjected to SDS-PAGE and transferred to nitrocellulose membrane. The membrane was blocked in 5% non-fat milk in PBST overnight and incubated with primary antibody and subsequently with appropriate horse radish peroxidase-conjugated secondary antibody. Signals of targeted proteins were detected by the Immun-Star HRP peroxide Luminol/Enhancer (Bio-Rad, Hercules, CA, USA) and recorded on ChemiDoc Touch Imaging System (Bio-Rad, Hercules, CA, USA). Anti-hACE2 (human ACE2 receptor) antibody was purchased from R&D system, Inc. (Cat# AF933, Minneapolis, MN, USA). Full western blot data are given in Supplementary Material (Figures S14–S16).

[5] = system: NCI-H1299 cells; assay: WST-1 cell viability assay, NCI-H1299; format: cell-based, human; settings: WST-1, 48 h, concentrations tested up to 20 µM; n = 3–5/group
Excerpt: (§1) We assessed whether ACE2P1D1 and ACE2P2D1 are toxic to the cells. We seeded and treated increasing concentrations of ACE2P1D1 and ACE2P2D1 on NCI-H1299, Caco-2, and MCF-7 cells. The standard WST-1 assay was used to measure the cell viability. As shown in Figure 5c–e, treatment with both compounds had no effects on cell viability in NCI-H1299, MCF-7, and Caco-2 cells.

[6] = system: Caco-2 cells; assay: WST-1 cell viability assay, Caco-2; format: cell-based, human; settings: WST-1, 48 h, concentrations tested up to 20 µM; n = 3–5/group
Excerpt: as §1

[7] = system: MCF-7 cells; assay: WST-1 cell viability assay, MCF-7; format: cell-based, human; settings: WST-1, 48 h, concentrations tested up to 20 µM; n = 3–5/group
Excerpt: as §1

T1 sequence (Q9BYF1 18-805): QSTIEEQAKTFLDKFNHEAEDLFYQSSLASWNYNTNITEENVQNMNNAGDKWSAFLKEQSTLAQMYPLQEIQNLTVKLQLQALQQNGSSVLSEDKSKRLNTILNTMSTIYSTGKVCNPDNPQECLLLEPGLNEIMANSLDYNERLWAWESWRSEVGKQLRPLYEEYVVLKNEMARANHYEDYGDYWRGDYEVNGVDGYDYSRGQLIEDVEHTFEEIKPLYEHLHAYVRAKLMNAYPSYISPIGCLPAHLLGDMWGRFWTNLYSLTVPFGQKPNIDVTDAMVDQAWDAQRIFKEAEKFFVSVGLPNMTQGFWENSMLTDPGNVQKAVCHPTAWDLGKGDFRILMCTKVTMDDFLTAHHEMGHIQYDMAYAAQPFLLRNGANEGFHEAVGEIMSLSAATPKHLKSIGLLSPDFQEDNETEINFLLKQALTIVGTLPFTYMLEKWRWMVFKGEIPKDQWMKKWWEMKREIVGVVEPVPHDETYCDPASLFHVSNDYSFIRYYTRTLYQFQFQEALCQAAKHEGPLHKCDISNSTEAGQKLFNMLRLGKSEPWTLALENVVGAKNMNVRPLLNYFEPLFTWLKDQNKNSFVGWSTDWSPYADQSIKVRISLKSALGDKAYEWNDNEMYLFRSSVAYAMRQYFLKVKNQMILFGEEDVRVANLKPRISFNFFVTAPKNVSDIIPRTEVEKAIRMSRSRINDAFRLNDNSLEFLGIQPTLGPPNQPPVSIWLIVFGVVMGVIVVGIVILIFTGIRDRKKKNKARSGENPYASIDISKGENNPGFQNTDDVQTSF

Q: How did the Kd [1] turn out when `C=CCN(CC(=O)N(CC(=O)N[C@@H](CCCCN)C(=O)N[C@@H](CCSC)C(=O)NCCCC[C@H](NC(=O)[C@H](CCSC)NC(=O)[C@H](CCCCN)NC(=O)CN(C(=O)CN(CC=C)C(=O)CN(Cc1ccc(OC)cc1)C(=O)CN(C(=O)CN(CCOC)C(=O)CNCC(C)C)[C@H](C)c1ccccc1)[C@H](C)c1ccccc1)C(N)=O)[C@H](C)c1ccccc1)C(=O)CN(Cc1ccc(OC)cc1)C(=O)CN(C(=O)CN(CCOC)C(=O)CNCC(C)C)[C@H](C)c1ccccc1` [ACE2P1D1] (I: H-[Nleu][Nme][Nrpe][N(4-MeOBn)Gly][NAllylGly][Nrpe]KMK-NH2 / II: H-[Nleu][Nme][Nrpe][N(4-MeOBn)Gly][NAllylGly][Nrpe]KM; amide I:9-II:C) was run?
A: 60 nM

Q: And the “effect on ACE2 activity in cultured Caco-2 cells” value [2]?
A: had no effects on ACE2 activity

Q: And the “cell surface expression of ACE2, Caco-2” value [3]?
A: did not decrease the cell surface expression of ACE2

Q: And the “total ACE2 protein level, Caco-2” value [4]?
A: total ACE2 protein levels did not change

Q: What about the “effect on cell viability, NCI-H1299” value [5] of the same compound?
A: had no effect on the cell viability

Q: What about the “effect on cell viability, Caco-2” value [6] of the same compound?
A: had no effect on the cell viability

Q: And the “effect on cell viability, MCF-7” value [7]?
A: had no effect on the cell viability

Q: With `COCCN(CC(=O)N[C@@H](CCCCN)C(=O)N[C@@H](CCSC)C(=O)NCCCC[C@H](NC(=O)[C@H](CCSC)NC(=O)[C@H](CCCCN)NC(=O)CN(CCOC)C(=O)CN(CC(C)C)C(=O)CN(CC(C)C)C(=O)CN(CCCOC(C)C)C(=O)CN(Cc1ccc(OC)cc1)C(=O)CNCc1ccc(OC)cc1)C(N)=O)C(=O)CN(CC(C)C)C(=O)CN(CC(C)C)C(=O)CN(CCCOC(C)C)C(=O)CN(Cc1ccc(OC)cc1)C(=O)CNCc1ccc(OC)cc1` [ACE2P2D1] (I: H-[N(4-MeOBn)Gly][N(4-MeOBn)Gly][N((CH2)3OiPr)Gly][Nleu][Nleu][Nme]KMK-NH2 / II: H-[N(4-MeOBn)Gly][N(4-MeOBn)Gly][N((CH2)3OiPr)Gly][Nleu][Nleu][Nme]KM; amide I:9-II:C) as the compound, how does the Kd [1] read?
A: 110 nM

Q: What about the “effect on ACE2 activity in cultured Caco-2 cells” value [2] of the same compound?
A: had no effects on ACE2 activity

Q: What about the “cell surface expression of ACE2, Caco-2” value [3] of the same compound?
A: did not decrease the cell surface expression of ACE2

Q: What about the “total ACE2 protein level, Caco-2” value [4] of the same compound?
A: total ACE2 protein levels did not change

Q: What about the “effect on cell viability, NCI-H1299” value [5] of the same compound?
A: had no effect on the cell viability

Q: What about the “effect on cell viability, Caco-2” value [6] of the same compound?
A: had no effect on the cell viability

Q: And the “effect on cell viability, MCF-7” value [7]?
A: had no effect on the cell viability
